Results on 23 compounds are retold here after patent US5892045A, “4-aryl-3-hydroxyquinolin-2-one derivatives as ion channel modulators” (priority 1997, dated 1999).

In assay [1] the test system is cloned mammalian (mSlo or hSlo) BK channels expressed in Xenopus oocytes. As to the kind of experiment: Increase of cloned BK-mediated outward current, two-electrode voltage clamp in Xenopus oocytes (IBTX-sensitive current). Type of assay: cell-based. The note with it: at 20 μM expressed as percent of controls; at least 5 oocytes. Here is the method:
The ability of compounds described in the present invention to open BK channels and increase whole-cell outward (K^+) BK-mediated currents was assessed under voltage-clamp conditions by determining their ability to increase cloned mammalian (mSlo or hSlo) BK-mediated outward current heterologously expressed in Xenopus oocytes [Butler, A., et al., Science, 261: 221-224 (1993); and Dworetzky, S. I., et al., Mol. Brain Res., 27: 189-193 (1994)]. The two BK constructs employed represent nearly structurally identical homologous proteins, and have proven to be pharmacologically identical in our tests. […] The relative contribution of BK channels current to total outward current was determined by subtraction of the current remaining in the presence of IBTX (non-BK current) from the current profiles obtained in all other experimental conditions (control, drug, and wash). […] All compounds were tested in at least 5 oocytes and are reported at the single concentration of 20 μM; the effect of the selected compounds of Formula I on BK current was expressed as the percent of control IBTX-sensitive current and is listed in Table I. Recordings were accomplished using standard two-electrode voltage clamp techniques [Stuhmer, W., et al., Methods in Enzymology, Vol. 207: 319-339 (1992)]; voltage-clamp protocols consisted of 500-750 ms duration step depolarization from a holding potential of -60 mV to +140 mV in 20 mV steps. The experimental media (modified Barth's solution) consisted of (in mM): NaCl (88), NaHCO3 (2.4), KCl (1.0), HEPES (10), MgSO4 (0.82), Ca(NO3)2 (0.33), CaCl2 (0.41); pH 7.5.
In general terms: Two-electrode voltage clamp holds a large cell at a set potential and records current.

For assay [2], the system named is Ca^2+ -activated potassium channels. Particulars: outside-out patches, myelinated nerve fibers; Koh 1994; cited from earlier work.
Assay [3] deals with BK channel. Particulars: very limited electrophysiological experiments; Laurent 1993; cited from earlier work.
Assay [4] has as its system BK channel. Particulars: Galvez 1990; cited from earlier work.

`O=c1[nH]c2cc(Cl)cc(Cl)c2c(-c2cc(Cl)ccc2O)c1O` [Example 2, 5,7-Dichloro-4-(5-chloro-2-hydroxyphenyl)-3-hydroxy-2(1H)-quinolinone]: the “BK Current (percent of control IBTX-sensitive current)” value in assay [1] is listed as “++ (>150%)”.

For the compound `COc1ccc(Br)cc1-c1c(O)c(=O)[nH]c2ccc([N+](=O)[O-])cc12` [Example 3], in assay [1], the “BK Current (percent of control IBTX-sensitive current)” value is “+ (100-150%)”.

As to `COc1ccc(Br)cc1-c1c(O)c(=O)[nH]c2cc(Cl)cc(Cl)c12` [Example 4], in assay [1], the “BK Current (percent of control IBTX-sensitive current)” value is given as “++ (>150%)”.

Regarding `COc1ccc(Cl)cc1-c1c(O)c(=O)[nH]c2cc(Cl)ccc12` [Example 5], the “BK Current (percent of control IBTX-sensitive current)” value in assay [1] is recorded as “+ (100-150%)”.

For `O=c1[nH]c2ccccc2c(-c2cc(Br)ccc2O)c1O` [Example 6], the “BK Current (percent of control IBTX-sensitive current)” value in assay [1] is listed as “+ (100-150%)”.

Consider `Cn1c(=O)c(O)c(-c2cc(Br)ccc2O)c2ccccc21` [Example 7], for which the “BK Current (percent of control IBTX-sensitive current)” value in assay [1] is on record as “+ (100-150%)”.

With `O=c1[nH]c2ccccc2c(-c2cc(Cl)ccc2O)c1O` [Example 8], the “BK Current (percent of control IBTX-sensitive current)” value in assay [1] is reported as “+ (100-150%)”.

As for `O=c1[nH]c2ccc([N+](=O)[O-])cc2c(-c2cc(Br)ccc2O)c1O` [Example 9], the “BK Current (percent of control IBTX-sensitive current)” value in assay [1] was “++ (>150%)”.

With `O=c1[nH]c2cc(C(F)(F)F)ccc2c(-c2cc(Cl)ccc2O)c1O` [Example 10], the “BK Current (percent of control IBTX-sensitive current)” value in assay [1] is given as “++ (>150%)”.

`O=c1[nH]c2cc(C(F)(F)F)ccc2c(-c2cc(Br)ccc2O)c1O` [Example 11]: the “BK Current (percent of control IBTX-sensitive current)” value in assay [1] is recorded as “++ (>150%)”.

Regarding `O=c1[nH]c2cc(Cl)cc(Cl)c2c(-c2cc(Br)ccc2O)c1O` [Example 12], the “BK Current (percent of control IBTX-sensitive current)” value in assay [1] is “++ (>150%)”.

Consider `O=c1[nH]c2ccc(Cl)cc2c(-c2cc(Cl)ccc2O)c1O` [Example 13], for which the “BK Current (percent of control IBTX-sensitive current)” value in assay [1] is recorded as “+ (100-150%)”.

As for `O=c1[nH]c2cccc(Cl)c2c(-c2cc(Cl)ccc2O)c1O` [Example 14], in assay [1], the “BK Current (percent of control IBTX-sensitive current)” value is on record as “+ (100-150%)”.

Take `O=c1[nH]c2cc(Cl)ccc2c(-c2cc(Cl)ccc2O)c1O` [Example 15]: the “BK Current (percent of control IBTX-sensitive current)” value in assay [1] is given as “++ (>150%)”.

With `O=c1[nH]c2ccc(C(F)(F)F)cc2c(-c2cc(Cl)ccc2O)c1O` [Example 16], in assay [1], the “BK Current (percent of control IBTX-sensitive current)” value is reported as “++ (>150%)”.

As for `O=c1[nH]c2ccc(C(F)(F)F)cc2c(-c2cc(Br)ccc2O)c1O` [Example 17], in assay [1], the “BK Current (percent of control IBTX-sensitive current)” value is “++ (>150%)”.

With `Cn1c(=O)c(O)c(-c2cc(Cl)ccc2O)c2c(Cl)cc(Cl)cc21` [Example 18], the “BK Current (percent of control IBTX-sensitive current)” value in assay [1] is “++ (>150%)”.

As for `O=c1[nH]c2ccc(Br)cc2c(-c2cc(Br)ccc2O)c1O` [Example 19], the “BK Current (percent of control IBTX-sensitive current)” value in assay [1] is on record as “++ (>150%)”.

Turning to `O=c1[nH]c2ccc(Br)cc2c(-c2cc(Cl)ccc2O)c1O` [Example 20], the “BK Current (percent of control IBTX-sensitive current)” value in assay [1] is recorded as “++ (>150%)”.

Take `O=c1[nH]c2c(Cl)cccc2c(-c2cc(Cl)ccc2O)c1O` [Example 21]: in assay [1], the “BK Current (percent of control IBTX-sensitive current)” value is “+ (100-150%)”.

Turning to `O=C(CCc1ccc(O)cc1)c1c(O)cc(O)cc1O` [Phloretin], the “open probability of Ca^2+ -activated potassium channels” value in assay [2] was “increase the open probability”.

Regarding `CNc1nc(Br)cn2cc(C#N)nc12` [SCA-40, 6-Bromo-8-(methylamino) imidazo[1,2-a]pyrazine-2-carbonitrile], the “BK channel opening activity” value with BK channel [3] is “BK channel opener”.

“iberiotoxin: specific and potent BK channel-blocking toxin iberiotoxin (IBTX) (QFTDVDCSVSKECWSVCKDLFGVDRGKCMGKKCRCYQ; UniProt P24663 1-37, looked up)”: the BK channel block result with BK channel [4] is “specific and potent BK channel-blocking toxin”.
